SMILES strings stand for the structures.

Assay [1] has as its system guanylurea hydrolase (GuuH). The assay is described as follows: ammonia release, Berthelot reaction. Type of assay: biochemical, Ectopseudomonas mendocina. Conditions: read-out: Exptl determination; 125 mM sodium phosphate, pH 8.0 (optimum), room temperature.
The target of assay [2] is biuret hydrolase (BiuH) (Herbaspirillum sp. BH-1, UniProt A0A2N6JFV5). Kind of assay: ammonia release, Berthelot reaction. Type of assay: biochemical. The following applies: pH […], sodium phosphate; turnover.
biuret hydrolase (BiuH), sequence (A0A2N6JFV5 1-231): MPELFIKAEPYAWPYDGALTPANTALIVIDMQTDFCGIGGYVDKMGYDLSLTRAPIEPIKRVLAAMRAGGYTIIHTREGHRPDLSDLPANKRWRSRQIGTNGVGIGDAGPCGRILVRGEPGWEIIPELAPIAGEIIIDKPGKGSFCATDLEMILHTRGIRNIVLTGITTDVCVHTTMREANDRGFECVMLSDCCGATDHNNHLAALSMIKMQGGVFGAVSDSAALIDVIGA

Take `N=C(N)NC(N)=O` [guanylurea]: in assay [1], the Km stood at 16 µM.

Consider `NC(=O)NC(N)=O` [biuret], for which the activity result in assay [2] is recorded as “diminished activity with biuret compared to that of the wild type”.

The values are drawn from PMC8208167 (Applied and Environmental Microbiology, 2021).
